# Measured values: patent US4400517A, “Phosphoric esters derived from 1,2,4-triazole having an insecticidal, nematocidal and acaricidal action, and their preparation” (priority 1976, dated 1983)
# Read-outs that look alike come from different tables or passages of the source.
# Tests used:
# Locusta M. = experiment: Activity on Locusta M.; settings: in vivo
# Spodoptera littoralis = experiment: Biological activity on Spodoptera littoralis (Lepidoptera); assay type: in vivo; settings: 48 h
# Protocol: (7) Biological activity on Spodoptera littoralis (Lepidoptera)
# Cut tobacco leaves were sprinkled with an aqueous dispersion of the products under examination (see Tables 4 and 5).
# After drying, the leaves were infested with 5-day old larvae.
# The percentage of mortality of the larvae was determined after 48 hours from treatment (untreated leaves, mortality=0).
# Culex pipiens = experiment: Biological activity on Culex pipiens larvae (Diptera); assay type: in vivo; settings: 24 h
# Protocol: (4) Biological activity on Culex pipiens (Diptera)
# Into glasses containing an aqueous dispersion of the products under examination (see Tables 4 and 5) there were introduced mosquito larvae of third and fourth age.
# The mortality percentage of the larvae (glasses containing pure water=0) was determined after 24 hours from treatment.
# Blatta orientalis = experiment: Biological activity on Blatta orientalis (Ortoptera); assay type: in vivo; settings: Blatta orientalis, 48 h, read-out: Activity (mortality class), Blatta O.; for mortality at 1 g/m2: 1 g/m^2
# Protocol: (10) Biological activity on Blatta orientalis (Ortoptera)
# The bottom and walls of glass crystallizers were treated uniformly with an acetonic solution of the products under examination (see Tables 4 and 5). After evaporation of the solvent, into each crystallizer were introduced ten 80-100 days old neanides. The crystallizers were then closed with a metal net cover. After 24 hours from the start of the treatment, the insects were transferred to similar untreated crystallizers, and there were appropriately nourished in conventional manner.
# The percentage of mortality (untreated insects=0) was determined after 48 hours from the start of the treatment.
# [1] = tested on: Leptinotarsa decemlineata; experiment: Biological activity on Leptinotarsa decemlineata (Coleoptera); assay type: in vivo; settings: 48 h
# Protocol: (3) Biological activity on Leptinotarsa decemlineata (Coleoptera)
# Small potato plants grown in pots were infested with 4-day old larvae, and were then sprinkled with an aqueous dispersion of the products under examination (see Tables 4 and 5).
# The mortality percentage (untreated small plants=0) was determined after 48 hours from treatment.
# Tetranychus urticae [2] = experiment: Biological activity on adults of Tetranychus urticae (Acari); assay type: in vivo; settings: 24 h
# Protocol: (5) Biological activity on adults of Tetranychus urticae (Acari)
# Discs of bean leaves were infested with adult acari and then sprinkled with an aqueous dispersion of the products under examination (see Tables 4 and 5).
# The mortality percentage was determined after 24 hours from treatment (untreated leaf discs, mortality=0).
# Pieris brassicae = experiment: Biological activity on Pieris brassicae (Lepidoptera); assay type: in vivo; settings: 48 h
# Protocol: (2) Biological activity on Pieris brassicae (Lepidotera)
# Cut-off cauliflower leaves were sprinkled with an aqueous dispersion of the products under examination (see TABLE 5).
# After drying, the leaves were infested with 5-day old larvae. The percentage of mortality of the larvae (untreated leaves=0) was determined after 48 hours from treatment.
# Tetranychus urticae [3] = experiment: Biological activity on Tetranychus urticae eggs (Acari); assay type: in vivo; settings: bean leaf discs, 144 h
# Protocol: (6) Biological activity on Tetranychus urticae (Acari)
# Small discs of bean leaves were infested with Acari eggs and were then sprinkled with an aqueous dispersion of the products under examination (see Table 5).
# The mortality percentage was determined after 6 days from treatment (untreated leaf discs, mortality=0).
# Macrosiphum euphorbiae = experiment: Biological activity on Macrosiphum euphorbiae (Aphides); assay type: in vivo; settings: potato plants, 24 h
# Protocol: (1) Biological activity on Macrosiphum euphorbiae (Aphides)
# Potato plants grown in pots were infested with adult females of aphides and, after several hours, were sprinked with an aqueous dispersion of the products under examination (see TABLE 5).
# The percentage of mortality was assessed after 24 hours after the treatment (untreated plants=0).
# [4] = read-out: Activity (mortality class), Spodoptera L.
# [5] = read-out: Activity (mortality class), Culex P. (larvae)
# [6] = read-out: Activity (mortality class), Leptinotarsa D.
# [7] = read-out: Activity (mortality class), Tetranychus U. (adults)
# [8] = read-out: Activity (mortality class), Pieris B.
# [9] = 1%o, Table 5, read-out: Activity (mortality class), Spodoptera L.
# [10] = 1%o, Table 5, read-out: Activity (mortality class), Leptinotarsa D.
# [11] = 1%o, Table 5, read-out: Activity (mortality class), Tetranychus U. (adults)
# [12] = 1%o, Table 5, read-out: Activity (mortality class), Pieris B.
# [13] = 0.02 ppm, Table 5, read-out: Activity (mortality class), Culex P. (larvae)
# [14] = 2 ppm, Table 5, read-out: Activity (mortality class), Culex P. (larvae)
# [15] = 0.01%o, Table 5, read-out: Activity (mortality class), Pieris B.
# [16] = 0.05%o, Table 5, read-out: Activity (mortality class), Spodoptera L.
# [17] = 0.05%o, Table 5, read-out: Activity (mortality class), Leptinotarsa D.
# [18] = 0.01%o, Table 5, read-out: Activity (mortality class), Tetranychus U. (adults)
smiles,measurement,setting,value
CC=Cc1nc(OP(=S)(OCC)OCC)n(C)n1 [M 8119],"Activity (mortality class), Locusta M.",Locusta M.,++ (100% of mortality)
same,mortality at 0.005 %,Spodoptera littoralis; [4],10 to 69%
same,mortality at 0.02 ppm,Culex pipiens; [5],0 to 9%
same,mortality at 0.01 g/m2,Blatta orientalis,100%
same,mortality at 0.005 %,[1]; [6],10 to 69%
same,mortality at 0.001 %,Tetranychus urticae [2]; [7],70 to 99%
same,mortality at 0.001 %,Pieris brassicae; [8],10 to 69%
CCOP(=S)(OCC)Oc1nc(C(C)OC)nn1-c1ccccc1 (stereo not shown) [M 8167],mortality at 0.1 %,Spodoptera littoralis; [9],100%
same,"Activity (mortality class), Tetranychus U. (eggs)",Tetranychus urticae [3],++ (100% of mortality)
same,mortality at 2 ppm,Culex pipiens; [5],100%
same,mortality at 0.1 %,[1]; [10],100%
same,mortality at 0.1 %,Tetranychus urticae [2]; [11],100%
same,"Activity (mortality class), Macrosiphum E.",Macrosiphum euphorbiae,+ (70-99% of mort.)
same,mortality at 0.1 %,Pieris brassicae; [12],100%
CCOP(=S)(OCC)Oc1nc(C(=O)CSC)nn1-c1ccccc1 [M 8169],mortality at 0.1 %,Spodoptera littoralis; [4],10 to 69%
same,"Activity (mortality class), Tetranychus U. (eggs)",Tetranychus urticae [3],++ (100% of mortality)
same,mortality at 2 ppm,Culex pipiens; [5],100%
same,mortality at 0.1 %,[1]; [6],100%
same,mortality at 0.1 %,Tetranychus urticae [2]; [7],100%
same,"Activity (mortality class), Macrosiphum E.",Macrosiphum euphorbiae,± (10-69% of mort.)
same,mortality at 0.1 %,Pieris brassicae; [8],100%
CCOP(=S)(OCC)Oc1nc(C(C)SC)nn1-c1ccccc1 (stereo not shown) [M 8170],"Activity (mortality class), Locusta M.",Locusta M.,++ (100% of mortality)
same,mortality at 0.1 %,Spodoptera littoralis; [4],70 to 99%
same,"Activity (mortality class), Tetranychus U. (eggs)",Tetranychus urticae [3],++ (100% of mortality)
same,mortality at 2 ppm,Culex pipiens; [5],100%
same,mortality at 0.1 %,[1]; [6],100%
same,mortality at 0.1 %,Tetranychus urticae [2]; [7],100%
same,"Activity (mortality class), Macrosiphum E.",Macrosiphum euphorbiae,+ (70-99% of mort.)
same,mortality at 0.1 %,Pieris brassicae; [8],100%
CCOP(=S)(OCC)Oc1nc(C=C(Br)Br)nn1C [M 8308],mortality at 0.1 %,Spodoptera littoralis; [9],100%
same,mortality at 0.02 ppm,Culex pipiens; [13],100%
same,mortality at 2 ppm,Culex pipiens; [14],100%
same,mortality at 1 g/m2,Blatta orientalis; Table 5,100%
same,mortality at 0.1 %,[1]; [10],100%
same,mortality at 0.1 %,Tetranychus urticae [2]; [11],100%
same,mortality at 0.1 %,Pieris brassicae; [12],100%
CCOP(=S)(OCC)Oc1nc(C=Cc2ccccc2)nn1C [M 8332],mortality at 0.1 %,Spodoptera littoralis; [9],100%
same,mortality at 2 ppm,Culex pipiens; [14],100%
same,mortality at 0.01 g/m2,"Blatta orientalis; 0,01 g/m^2, Table 5",100%
same,mortality at 1 g/m2,Blatta orientalis; Table 5,100%
same,mortality at 0.1 %,[1]; [10],70 to 99%
same,mortality at 0.1 %,Tetranychus urticae [2]; [11],100%
same,mortality at 0.001 %,Pieris brassicae; [15],10 to 69%
same,mortality at 0.1 %,Pieris brassicae; [12],100%
CCOP(=S)(OCC)Oc1nc(C=C(Cl)Cl)nn1C(C)C [M 8450],mortality at 0.005 %,Spodoptera littoralis; [16],100%
same,mortality at 0.02 ppm,Culex pipiens; [13],100%
same,mortality at 0.01 g/m2,"Blatta orientalis; 0,01 g/m^2, Table 5",70 to 99%
same,mortality at 0.005 %,[1]; [17],10 to 69%
same,mortality at 0.001 %,Tetranychus urticae [2]; [18],100%
same,mortality at 0.001 %,Pieris brassicae; [15],100%
CCCCn1nc(C=C(Cl)Cl)nc1OP(=S)(OCC)OCC [M 8474],mortality at 0.005 %,Spodoptera littoralis; [16],100%
same,mortality at 0.02 ppm,Culex pipiens; [13],100%
same,mortality at 0.01 g/m2,"Blatta orientalis; 0,01 g/m^2, Table 5",0 to 9%
same,mortality at 0.005 %,[1]; [17],100%
same,mortality at 0.001 %,Tetranychus urticae [2]; [18],0 to 9%
same,mortality at 0.001 %,Pieris brassicae; [15],100%
C=Cc1nc(OP(=S)(OCC)OCC)n(C)n1 [M 8476],"Activity (mortality class), Locusta M.",Locusta M.,++ (100% of mortality)
same,mortality at 0.02 ppm,Culex pipiens; [5],10 to 69%
same,mortality at 0.01 g/m2,"Blatta orientalis; 0,01 g/m^2, Table 5",100%
same,mortality at 0.001 %,Tetranychus urticae [2]; [18],100%
CCCCn1nc(C=C(Cl)Cl)nc1OP(=S)(OC)OC [M 8477],mortality at 0.005 %,Spodoptera littoralis; [16],10 to 69%
same,mortality at 0.1 %,Spodoptera littoralis; [9],100%
same,mortality at 2 ppm,Culex pipiens; [14],100%
same,mortality at 1 g/m2,Blatta orientalis; Table 5,100%
same,mortality at 0.1 %,[1]; [10],100%
same,mortality at 0.1 %,Tetranychus urticae [2]; [11],100%
same,mortality at 0.1 %,Pieris brassicae; [12],100%
CCOP(=S)(OCC)Oc1nc(C=C(C)C)nn1C [M 8483],mortality at 0.005 %,Spodoptera littoralis; [16],10 to 69%
same,mortality at 0.02 ppm,Culex pipiens; [13],10 to 69%
same,mortality at 0.01 g/m2,Blatta orientalis,100%
same,mortality at 0.005 %,[1]; [17],70 to 99%
same,mortality at 0.001 %,Tetranychus urticae [2]; [18],100%
same,mortality at 0.001 %,Pieris brassicae; [8],10 to 69%
